# Source: publication PMC8621770, “New Compounds with Bioisosteric Replacement of Classic Choline Kinase Inhibitors Show Potent Antiplasmodial Activity” (Pharmaceutics, 2021)
# Where two headings read alike, the source gives them in different places.
# Assays:
# P. falciparum strain 3D7 [1] = test system: P. falciparum strain 3D7; set-up: method as in PMID 27616047, PMID 29880399, PMID 25089811; settings: reference compounds; read-out: IC50 a (In vitro IC50 values against P. falciparum); cited from earlier work
# PfCK [2] = molecular target: T1, PfCK (Plasmodium falciparum, UniProt Q8IM71); settings: reference compounds, cited from earlier work; for inhibition of PfCK depending on substrate (in words): choline kinase or ethanolamine kinase activity; for IC50: read-out: IC50 PfCK b (compound concentration required to inhibit PfCK enzyme by 50%)
# T1 construct: A truncated form of PfCK (Δ79-440) featuring an N-terminal 6× His-tag; 6xHis (N); host or cells: Escherichia coli BL21 (DE3) Star
# [3] = Aggregation of compound solutions for the enzymatic assays; type: physicochemical; settings: even at 5 mM concentration
# Text: As a result, it was difficult to measure their exact concentration, which is crucial for enzymatic assays.
# PfCK [4] = molecular target: T1, PfCK; experiment: Spectrophotometric coupled enzymatic assay for PfCK activity (substrate choline); type: biochemical; settings: read-out: PfCK Fractional Activity at 25 µM
# P. falciparum strain 3D7 [5] = experiment: Antimalarial activity, P. falciparum lactate dehydrogenase growth inhibition assay; type: cell-based, Plasmodium falciparum; settings: Plasmodium falciparum, Erythrocyte; P. falciparum 3D7 in human erythrocytes, 72 h, LDH readout; read-out: IC50 a (In vitro IC50 values against P. falciparum)
# T1 sequence (Q8IM71 entry or part of it): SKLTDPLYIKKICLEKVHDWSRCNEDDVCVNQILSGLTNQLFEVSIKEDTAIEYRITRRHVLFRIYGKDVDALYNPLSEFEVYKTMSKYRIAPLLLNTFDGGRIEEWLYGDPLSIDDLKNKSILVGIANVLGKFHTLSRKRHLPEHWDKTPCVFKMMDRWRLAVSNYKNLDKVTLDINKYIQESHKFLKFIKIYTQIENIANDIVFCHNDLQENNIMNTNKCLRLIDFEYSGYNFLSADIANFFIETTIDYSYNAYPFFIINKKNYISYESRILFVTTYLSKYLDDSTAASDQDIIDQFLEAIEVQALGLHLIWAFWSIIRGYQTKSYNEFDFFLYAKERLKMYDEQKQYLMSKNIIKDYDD
Structure (SMILES),IC50 (P. falciparum strain 3D7 [1]) [nM],inhibition of PfCK depending on substrate (in words) (PfCK [2]),IC50 (PfCK [2]) [nM],aggregation [3],melting point [°C],remaining activity at 25 µM (PfCK [4]) [%],IC50 (P. falciparum strain 3D7 [5]) [nM]
CN(C)c1cc[n+](Cc2ccc(OCCOc3ccc(C[n+]4ccc(N(C)C)cc4)cc3)cc2)cc1 [10a],16 ± 1,no inhibition of the enzyme in its choline kinase or ethanolamine kinase activity is observed,–,–,–,–,–
Clc1ccc2c(N3CCCCCC3)cc[n+](Cc3ccc(OCCOc4ccc(C[n+]5ccc(N6CCCCCC6)c6ccc(Cl)cc65)cc4)cc3)c2c1 [10k],35 ± 4,–,10900 ± 124,–,–,–,–
CN(C)c1cc[n+](Cc2ccc(-c3ccc(C[n+]4ccc(N5CCCC5)cc4)cc3)cc2)cc1 [BR-23],3 ± 0.2,only had inhibitory activity when the enzyme-substrate was ethanolamine,276000,–,–,–,–
CN(C)c1cc[n+](Cc2ccc(CCCCc3ccc(C[n+]4ccc(N5CCCC5)cc4)cc3)cc2)cc1 [BR-25],2 ± 0.3,only had inhibitory activity when the enzyme-substrate was ethanolamine,103000,–,–,–,–
"[Br-].c1ccc(-c2ccc(C[n+]3cnc(N4CCCC4)c4sccc43)cc2)cc1 [Fa-M1, 1-([1,1’-biphenyl]-4-ylmethyl)-4-(pyrrolidin-1-yl)thieno[3,2-d]pyrimidin-1-ium bromide]",–,–,–,severe aggregation,295 to 298,54.6 ± 11.7,41
"[Br-].c1ccc(-c2ccc(C[n+]3ccc(N4CCCC4)c4sccc43)cc2)cc1 [Fa-M2, 4-([1,1’-biphenyl]-4-ylmethyl)-7-(pyrrolidin-1-yl)thieno[3,2-b]pyridin-4-ium bromide]",–,–,–,severe aggregation,271 to 273,101 ± 13.7,48.9
"[Br-].c1ccc(-c2ccc(C[n+]3cnc(N4CCCC4)c4ccsc43)cc2)cc1 [Fa-M3, 1-([1,1’-biphenyl]-4-ylmethyl)-4-(pyrrolidin-1-yl)thieno[2,3-d]pyrimidin-1-ium bromide]",–,–,–,severe aggregation,275 to 278,96.9 ± 18.7,35.1
